Measurements from ChEMBL document CHEMBL3045439, “Isoforms of the heteropteran Nezara viridula ecdysone receptor: protein characterisation, RH5992 insecticide binding and homology modelling” (Pest Manag Sci, 2011).

Legend:
Type in all cases: protein-complex assay
[1] = biological target: T1, Ecdysone receptor (Nezara viridula, UniProt E5L6Y0+E5L6Y1); experiment: Binding affinity to Nezara viridula EcR11
T1 sequence (E5L6Y1 whole entry): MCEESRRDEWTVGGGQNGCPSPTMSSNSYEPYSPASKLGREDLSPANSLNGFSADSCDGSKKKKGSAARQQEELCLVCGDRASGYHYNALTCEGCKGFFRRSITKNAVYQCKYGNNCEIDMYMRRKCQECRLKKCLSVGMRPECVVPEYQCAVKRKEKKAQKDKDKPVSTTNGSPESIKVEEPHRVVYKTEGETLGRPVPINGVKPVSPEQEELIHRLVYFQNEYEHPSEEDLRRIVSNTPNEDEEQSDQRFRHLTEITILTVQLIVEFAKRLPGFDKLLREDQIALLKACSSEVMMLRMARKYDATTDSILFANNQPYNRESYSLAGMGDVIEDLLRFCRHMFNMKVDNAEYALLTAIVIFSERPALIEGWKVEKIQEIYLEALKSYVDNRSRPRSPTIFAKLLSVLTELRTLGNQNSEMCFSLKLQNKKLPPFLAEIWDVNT
T1 sequence (E5L6Y0 whole entry): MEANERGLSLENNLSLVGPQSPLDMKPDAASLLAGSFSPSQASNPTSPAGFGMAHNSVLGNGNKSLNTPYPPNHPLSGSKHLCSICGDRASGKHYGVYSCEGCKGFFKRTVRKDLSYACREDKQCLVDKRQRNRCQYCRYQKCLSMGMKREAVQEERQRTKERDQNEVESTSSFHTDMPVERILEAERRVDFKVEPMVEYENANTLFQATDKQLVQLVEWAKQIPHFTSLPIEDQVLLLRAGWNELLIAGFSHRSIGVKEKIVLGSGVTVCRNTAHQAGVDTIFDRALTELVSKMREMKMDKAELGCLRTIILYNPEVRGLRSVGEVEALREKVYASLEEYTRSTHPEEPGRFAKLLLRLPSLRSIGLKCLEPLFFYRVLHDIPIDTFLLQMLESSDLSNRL

[2] = biological target: T2, Ecdysone receptor (Anthonomus grandis, UniProt B8RG26+Q4W6C8); experiment: Binding affinity to Anthonomus grandis ecdysone receptor (EcR)
T2 sequence (B8RG26 whole entry): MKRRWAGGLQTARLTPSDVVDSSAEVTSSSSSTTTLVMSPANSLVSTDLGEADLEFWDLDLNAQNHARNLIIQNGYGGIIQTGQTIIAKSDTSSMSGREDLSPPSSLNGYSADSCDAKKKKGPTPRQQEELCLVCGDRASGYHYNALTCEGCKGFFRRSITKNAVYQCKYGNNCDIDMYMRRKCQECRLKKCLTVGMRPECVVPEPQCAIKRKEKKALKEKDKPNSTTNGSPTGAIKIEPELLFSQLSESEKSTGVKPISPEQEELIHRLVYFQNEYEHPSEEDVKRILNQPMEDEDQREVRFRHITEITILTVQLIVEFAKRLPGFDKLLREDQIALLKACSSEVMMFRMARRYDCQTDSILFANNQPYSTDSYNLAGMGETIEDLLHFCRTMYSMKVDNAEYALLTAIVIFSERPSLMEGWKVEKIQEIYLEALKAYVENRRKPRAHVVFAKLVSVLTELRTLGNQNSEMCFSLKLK
T2 sequence (Q4W6C8 whole entry): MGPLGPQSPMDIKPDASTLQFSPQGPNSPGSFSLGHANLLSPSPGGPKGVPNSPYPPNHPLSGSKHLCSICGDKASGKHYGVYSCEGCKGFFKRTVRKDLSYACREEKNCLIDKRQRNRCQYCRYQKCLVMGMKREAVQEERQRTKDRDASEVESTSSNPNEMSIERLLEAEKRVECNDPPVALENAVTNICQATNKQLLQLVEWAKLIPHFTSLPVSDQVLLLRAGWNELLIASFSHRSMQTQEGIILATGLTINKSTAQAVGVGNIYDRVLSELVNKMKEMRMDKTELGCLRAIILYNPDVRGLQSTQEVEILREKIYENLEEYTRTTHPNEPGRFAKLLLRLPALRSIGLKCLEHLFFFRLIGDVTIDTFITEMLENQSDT

[3] = biological target: T3, Ecdysone receptor (Plodia interpunctella, UniProt Q6IVK1+Q6RVD3); experiment: Binding affinity to Plodia interpunctella (Indian meal moth ) EcR
T3 sequence (Q6RVD3 whole entry): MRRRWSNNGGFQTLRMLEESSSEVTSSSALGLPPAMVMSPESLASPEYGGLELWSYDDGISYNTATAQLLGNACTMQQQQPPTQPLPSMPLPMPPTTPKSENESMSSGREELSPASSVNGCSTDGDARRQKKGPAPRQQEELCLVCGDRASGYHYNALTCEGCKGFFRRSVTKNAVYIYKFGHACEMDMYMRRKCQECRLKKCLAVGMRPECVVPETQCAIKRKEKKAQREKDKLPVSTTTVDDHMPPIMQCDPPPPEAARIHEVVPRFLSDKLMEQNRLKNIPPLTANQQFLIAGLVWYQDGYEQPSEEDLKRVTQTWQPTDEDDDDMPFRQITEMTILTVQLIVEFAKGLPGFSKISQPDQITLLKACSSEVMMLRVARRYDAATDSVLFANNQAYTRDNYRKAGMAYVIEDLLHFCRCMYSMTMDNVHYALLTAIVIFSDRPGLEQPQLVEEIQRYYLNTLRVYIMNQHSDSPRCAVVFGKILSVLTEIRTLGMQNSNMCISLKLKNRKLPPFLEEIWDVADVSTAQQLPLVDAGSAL
T3 sequence (Q6IVK1 whole entry): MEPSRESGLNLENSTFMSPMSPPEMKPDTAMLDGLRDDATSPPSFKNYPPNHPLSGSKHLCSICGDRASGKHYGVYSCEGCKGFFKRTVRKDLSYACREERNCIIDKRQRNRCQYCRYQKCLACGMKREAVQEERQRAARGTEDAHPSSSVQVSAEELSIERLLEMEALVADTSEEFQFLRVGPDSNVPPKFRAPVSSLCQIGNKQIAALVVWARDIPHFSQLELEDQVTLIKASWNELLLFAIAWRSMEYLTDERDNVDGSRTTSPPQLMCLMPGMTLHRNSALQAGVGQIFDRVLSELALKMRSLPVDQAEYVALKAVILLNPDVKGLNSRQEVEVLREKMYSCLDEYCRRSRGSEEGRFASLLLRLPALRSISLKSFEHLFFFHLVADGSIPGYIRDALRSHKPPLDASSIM

SMILES: CCc1ccc(C(=O)NN(C(=O)c2cc(C)cc(C)c2)C(C)(C)C)cc1 [TEBUFENOZIDE]
- Ki [1]: 25.1 µM
- Ki [2]: 12.6 µM
- Ki [3]: 0.00316 µM
